How the values were obtained:
[1] = UV absorption in DMSO at 20° C.; assay type: physicochemical; settings: FIG. 1
Description: As clearly shown in FIG. 1, the compounds of the present invention have a strong UV absorption peak around 740 nm. Compounds 3 to 8 and 11 to 16 show an UV absorption pattern similar to that of tetraphenylbacteriochlorin and also have a strong UV absorption peak around 740 nm.

[2] = test system: HeLa cells; experiment: Phototoxicity test (MTT assay, viability of HeLa cells after irradiation); assay type: cell-based; settings: test compound 5 or 10 μM for two hours, 500 W halogen lamp with filter cutting off light shorter than 500 nm for 8 minutes, MTT after 24 hours
Description: Each of Compounds 1 to 16 was evaluated about its cytotoxicity by viability of HeLa cells using MTT assay (Carmichal, J., W. G. DeGraff, A. F. Gazdar, J. D. Minna and J. B. Mitchell, Cancer Res., 1987, 47, 936–942). HeLa cells (1×10^4 cells/well) were incubated in Dulbecco's modified Eagle's medium (DMEM) containing 10% fetal bovine serum (FBS) on a 96-well plate in 5% CO2 at 37° C. for 24 hours. After washing with phosphate buffered saline (PBS), the cells were incubated in DMEM without serum in the presence of each of the compounds to be tested (5 or 10 μM) for two hours. The cells were washed with PBS and irradiated with a 500 W halogen lamp equipped with a filter cutting off the light shorter than 500 nm wave length for 8 minutes. After 24 hours' incubation, the viability was measured by the MTT assay. HeLa cells without test compound were used as a control. […] The survival ratio of the cells is calculated by the following formula: Cell survival ratio (%)=(OD540 in presence of test compound with irradiation/OD540 in presence of test compound without irradiation)×100. A cell survival ratio of 100% means the absence of cytotoxicity.

Row | Compound | strong UV absorption peak [1] | cytotoxicity when irradiated with light (cell survival ratio, FIG. 2) [2]
1 | CC(=O)OC[C@H]1O[C@@H](Oc2ccc(-c3c4nc(c(-c5ccc(O[C@@H]6O[C@H](COC(C)=O)[C@@H](OC(C)=O)[C@H](OC(C)=O)[C@H]6OC(C)=O)cc5)c5ccc([nH]5)c(-c5ccc(O[C@@H]6O[C@H](COC(C)=O)[C@@H](OC(C)=O)[C@H](OC(C)=O)[C@H]6OC(C)=O)cc5)c5nc(c(-c6ccc(O[C@@H]7O[C@H](COC(C)=O)[C@@H](OC(C)=O)[C@H](OC(C)=O)[C@H]7OC(C)=O)cc6)c6ccc3[nH]6)CC5)CC4)cc2)[C@H](OC(C)=O)[C@@H](OC(C)=O)[C@@H]1OC(C)=O [Compound 1, 5,10,15,20-tetrakis[4-(2′,3′,4′,6′-tetra-O-acetyl-β-D-glucopyranosyloxy)phenyl]bacteriochlorin] | around 740 nm | –
2 | CC(=O)OC[C@H]1O[C@@H](Oc2cccc(-c3c4nc(c(-c5cccc(O[C@@H]6O[C@H](COC(C)=O)[C@@H](OC(C)=O)[C@H](OC(C)=O)[C@H]6OC(C)=O)c5)c5ccc([nH]5)c(-c5cccc(O[C@@H]6O[C@H](COC(C)=O)[C@@H](OC(C)=O)[C@H](OC(C)=O)[C@H]6OC(C)=O)c5)c5nc(c(-c6cccc(O[C@@H]7O[C@H](COC(C)=O)[C@@H](OC(C)=O)[C@H](OC(C)=O)[C@H]7OC(C)=O)c6)c6ccc3[nH]6)CC5)CC4)c2)[C@H](OC(C)=O)[C@@H](OC(C)=O)[C@@H]1OC(C)=O [Compound 2, 5,10,15,20-tetrakis[3-(2′,3′,4′,6′-tetra-O-acetyl-β-D-glucopyranosyloxy)phenyl]bacteriochlorin] | around 740 nm | –
3 | OC[C@H]1O[C@@H](Oc2ccc(-c3c4nc(c(-c5ccc(O[C@@H]6O[C@H](CO)[C@@H](O)[C@H](O)[C@H]6O)cc5)c5ccc([nH]5)c(-c5ccc(O[C@@H]6O[C@H](CO)[C@@H](O)[C@H](O)[C@H]6O)cc5)c5nc(c(-c6ccc(O[C@@H]7O[C@H](CO)[C@@H](O)[C@H](O)[C@H]7O)cc6)c6ccc3[nH]6)CC5)CC4)cc2)[C@H](O)[C@@H](O)[C@@H]1O [Compound 9, 5,10,15,20-tetrakis[4-(β-D-glucopyranosyloxy)phenyl]-bacteriochlorin] | around 740 nm | –
4 | OC[C@H]1O[C@@H](Oc2cccc(-c3c4nc(c(-c5cccc(O[C@@H]6O[C@H](CO)[C@@H](O)[C@H](O)[C@H]6O)c5)c5ccc([nH]5)c(-c5cccc(O[C@@H]6O[C@H](CO)[C@@H](O)[C@H](O)[C@H]6O)c5)c5nc(c(-c6cccc(O[C@@H]7O[C@H](CO)[C@@H](O)[C@H](O)[C@H]7O)c6)c6ccc3[nH]6)CC5)CC4)c2)[C@H](O)[C@@H](O)[C@@H]1O [Compound 10, 5,10,15,20-tetrakis[3-(β-D-glucopyranosyloxy)phenyl]-bacteriochlorin] | around 740 nm | exhibited cytotoxicity
5 | O[C@@H]1[C@H](Oc2cccc(-c3c4nc(c(-c5cccc(O[C@@H]6OC[C@@H](O)[C@@H](O)[C@@H]6O)c5)c5ccc([nH]5)c(-c5cccc(O[C@@H]6OC[C@@H](O)[C@@H](O)[C@@H]6O)c5)c5nc(c(-c6cccc(O[C@@H]7OC[C@@H](O)[C@@H](O)[C@@H]7O)c6)c6ccc3[nH]6)CC5)CC4)c2)OC[C@@H](O)[C@H]1O [Compound 14, 5,10,15,20-tetrakis[3-(β-D-arabinopyranosyloxy)phenyl]-bacteriochlorin] | – | exhibited cytotoxicity
6 | O[C@@H]1[C@@H](O)[C@H](Oc2cccc(-c3c4nc(c(-c5cccc(O[C@@H]6OC[C@@H](O)[C@H](O)[C@H]6O)c5)c5ccc([nH]5)c(-c5cccc(O[C@@H]6OC[C@@H](O)[C@H](O)[C@H]6O)c5)c5nc(c(-c6cccc(O[C@@H]7OC[C@@H](O)[C@H](O)[C@H]7O)c6)c6ccc3[nH]6)CC5)CC4)c2)OC[C@H]1O [Compound 16, 5,10,15,20-tetrakis[3-(β-D-xylopyranosyloxy)phenyl]bacteriochlorin] | – | exhibited cytotoxicity

— patent publication US7157432B2, “Tetraphenylbacteriochlorin derivatives and compositions containing the same” (San-Ei Gen F.F.I., Inc., priority 2000, dated 2007)
